# Laboratory results reported in patent EP0745595A1, “3-(3-Aryloxyphenyl)-1-(substituted methyl)-s-triazine-2,4,6-oxo or thiotrione herbicidal agents” (American Cyanamid Company, priority 1995, dated 1996).
# Columns and labels:
# Assay type in all cases: in vivo
# [1] = tested on: GALIUM APARINE; experiment: Postemergence herbicidal evaluation, GALAP (Galium); parameters: key to GALAP rating / Herbicidal effect rating, GALAP / GALAP: 0-9 visual rating scale vs untreated control;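 also: higher means more injury with 8 approaching complete kill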
# Method in brief: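 Galium (GALAP) seedlings were raised in jiffy flats for about two weeks, then sprayed with test compounds dispersed in 50/50 acetone/water containing 0.5% TWEEN®20, delivered through a nozzle at 40 psi. Plants were kept on greenhouse benches and visually rated 0-9 against a control four to five weeks later; repeat tests were averaged.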
# [2] = tested on: ECHINOCHLOA CRUS-GALLI, (L) BEAU; experiment: Postemergence herbicidal evaluation, ECHCG (Barnyardgrass); parameters: key to ECHCG rating / Herbicidal effect rating, ECHCG / ECHCG: 0-9 visual rating scale vs untreated control
# Method in brief: (§1)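 Two-week-old seedlings sprayed with compound in 50/50 acetone/water plus 0.5% TWEEN 20 at about 0.125–0.500 kg/ha via nozzle at 40 psi. Kept in greenhouse; rated visually 4–5 weeks after treatment on a 0–9 scale versus untreated control, averaging repeat tests.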
# [3] = tested on: ZEA MAYS L.; experiment: Postemergence herbicidal evaluation, ZEAMX (Corn, Field);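 also: higher means more injury with 8 approaching complete kill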
# Method in brief: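 Corn seedlings were raised in jiffy flats for roughly two weeks, then sprayed postemergence with the test material dispersed in 50/50 acetone/water containing 0.5% TWEEN®20 surfactant, using a nozzle at 40 psi. Plants were kept on greenhouse benches under standard care and visually rated on a 0-9 scale four to five weeks after treatment.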
# [4] = tested on: CHENOPODIUM ALBUM, L.; experiment: Postemergence herbicidal evaluation, CHEAL (Lambsquarters, Common)
# Method in brief: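 Seedlings of common lambsquarters (Chenopodium album) were raised in jiffy flats for roughly two weeks, then sprayed postemergence through a nozzle at 40 psi with test compound dispersed in 50/50 acetone/water containing 0.5% TWEEN®20 surfactant. Plants were kept on greenhouse benches under standard care and rated visually on a 0-9 scale versus controls.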
# [5] = tested on: CASSIA OBTUSIFOLIA, L.; experiment: Postemergence herbicidal evaluation, CASOB (Sicklepod); parameters: key to CASOB rating / Herbicidal effect rating, CASOB / CASOB: 0-9 visual rating scale vs untreated control
# Method in brief: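 Visual 0–9 scores reflect stand, vigor, malformation, size, chlorosis and overall appearance relative to control, taken 4–5 weeks after spraying two-week-old seedlings with about 0.125–0.500 kg/ha compound in acetone/water/TWEEN 20.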
# [6] = tested on: TRITICUM AESTIVUM, CV. APOLLO; experiment: Postemergence herbicidal evaluation, TRZAWO (Wheat, Winter, CV. APOLLO);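 also: higher means more injury with 8 approaching complete kill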
# Method in brief: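 Wheat seedlings, raised in jiffy flats for roughly two weeks, were sprayed postemergence with test compound dispersed in a 50/50 acetone/water mixture containing 0.5% TWEEN®20 surfactant, delivered through a nozzle at 40 psi. Plants were then kept on greenhouse benches under conventional care. Four to five weeks after treatment they were rated visually on a 0-9 scale against an untreated control, and ratings from repeated tests were averaged.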
# [7] = tested on: AMBROSIA ARTEMISIIFOLIA, L.; experiment: Postemergence herbicidal evaluation, AMBEL (Ragweed, Common);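 also: higher means more injury with 8 approaching complete kill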
# Method in brief: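 Common ragweed (Ambrosia artemisiifolia) seedlings were raised in jiffy flats for roughly two weeks, then sprayed postemergence through a nozzle at 40 psi with the test compound dispersed in 50/50 acetone/water carrying 0.5% TWEEN®20. The plants were kept on greenhouse benches under conventional care. Four to five weeks later, injury was rated visually on a 0-9 scale, and repeat tests were averaged.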
# [8] = tested on: IPOMOEA SPP.; experiment: Postemergence herbicidal evaluation, IPOSS (Morningglory spp.)
# Method in brief: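 Seedlings of morningglory (Ipomoea spp.) were raised in jiffy flats for roughly two weeks. They were then sprayed postemergence through a nozzle at 40 psi with test compound dispersed in 50/50 acetone/water containing 0.5% TWEEN®20 surfactant. Plants were kept on greenhouse benches under standard care and visually rated 0-9 against controls four to five weeks after treatment.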
# [9] = tested on: ABUTILON THEOPHRASTI, MEDIC.; experiment: Postemergence herbicidal evaluation, ABUTH (Velvetleaf)
# Method in brief: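 Velvetleaf (Abutilon theophrasti) seedlings were raised in jiffy flats for about two weeks and then sprayed postemergence. The test compound was dispersed in a 50/50 acetone/water mixture containing 0.5% TWEEN®20 and applied through a nozzle operating at 40 psi. Plants were kept on greenhouse benches and rated 0-9 four to five weeks after treatment.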
# [10] = tested on: SETARIA VIRIDIS, (L) BEAU; experiment: Postemergence herbicidal evaluation, SETVI (Foxtail, Green); parameters: key to SETVI rating / Herbicidal effect rating, SETVI / SETVI: 0-9 visual rating scale vs untreated control
# Method in brief: as §1
# [11] = tested on: ORYZA SATIVA, L. TEBONNET; experiment: Rice tolerance to post-transplant applications under flooded paddy conditions, ORYSAT (Rice, Tebonnet); settings: for Herbicidal effect rating, ORYSAT: post-transplant rice, 3-4 weeks after treatment; for ORYSAT: post-transplanted rice
# Method in brief: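 Post-transplant paddy test: compound applied 3 d after transplanting to flooded soil (1.5-3 cm water), ~0.063-0.5 kg/ha a.i., 50/50 aq/acetone. Silt loam, 2 × 10-d seedlings/pot. Greenhouse 3-4 wk, visual 0-9 score vs control.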
smiles,measurement,setting,value
"COC(=O)Cn1c(=O)n(C)c(=O)n(-c2cc(Oc3ccc(C(F)(F)F)cc3Cl)ccc2Cl)c1=O [Compound 39, Methyl 3-{[2-chloro-5-(2-chloro-α,α,α-trifluoro-p-tolyl)oxy]phenyl}tetrahydro-5-methyl-2,4,6-trioxo-s-triazine-1(2H)-acetate]",GALAP,[1]; Rate 0.016 kg/ha,7.5
same,GALAP,[1]; Rate 0.032 kg/ha,8.5
same,GALAP,[1]; Rate 0.063 kg/ha,7.0
same,GALAP,[1]; Rate 0.125 kg/ha,8.0
same,GALAP,[1]; Rate 0.250 kg/ha,9.0
same,GALAP,[1]; Rate 0.500 kg/ha,9.0
same,ECHCG,[2]; Rate 0.016 kg/ha,1.5
same,ECHCG,[2]; Rate 0.032 kg/ha,3.0
same,ECHCG,[2]; Rate 0.063 kg/ha,1.0
same,ECHCG,[2]; Rate 0.125 kg/ha,4.5
same,ECHCG,[2]; Rate 0.250 kg/ha,7.5
same,ECHCG,[2]; Rate 0.500 kg/ha,8.0
same,ZEAMX,[3]; Rate 0.016 kg/ha,3.3
same,ZEAMX,[3]; Rate 0.032 kg/ha,4.3
same,ZEAMX,[3]; Rate 0.063 kg/ha,4.8
same,ZEAMX,[3]; Rate 0.125 kg/ha,6.5
same,ZEAMX,[3]; Rate 0.250 kg/ha,8.0
same,ZEAMX,[3]; Rate 0.500 kg/ha,8.5
same,CHEAL,[4]; Rate 0.016 kg/ha,6.0
same,CHEAL,[4]; Rate 0.032 kg/ha,8.0
same,CHEAL,[4]; Rate 0.063 kg/ha,9.0
same,CHEAL,[4]; Rate 0.125 kg/ha,9.0
same,CHEAL rating,[4]; Rate 0.125 kg/ha,9.0
same,CHEAL,[4]; Rate 0.250 kg/ha,9.0
same,CHEAL rating,[4]; Rate 0.250 kg/ha,9.0
same,CHEAL,[4]; Rate 0.500 kg/ha,9.0
same,CHEAL rating,[4]; Rate 0.500 kg/ha,9.0
same,CASOB,[5]; Rate 0.016 kg/ha,6.0
same,CASOB,[5]; Rate 0.032 kg/ha,9.0
same,CASOB,[5]; Rate 0.063 kg/ha,9.0
same,CASOB,[5]; Rate 0.125 kg/ha,9.0
same,CASOB rating,[5]; Rate 0.125 kg/ha,9.0
same,CASOB,[5]; Rate 0.250 kg/ha,9.0
same,CASOB rating,[5]; Rate 0.250 kg/ha,9.0
same,CASOB,[5]; Rate 0.500 kg/ha,9.0
same,CASOB rating,[5]; Rate 0.500 kg/ha,9.0
same,TRZAWO,[6]; Rate 0.016 kg/ha,2.8
same,TRZAWO,[6]; Rate 0.032 kg/ha,3.8
same,TRZAWO,[6]; Rate 0.063 kg/ha,4.5
same,TRZAWO,[6]; Rate 0.125 kg/ha,4.8
same,TRZAWO,[6]; Rate 0.250 kg/ha,6.0
same,TRZAWO,[6]; Rate 0.500 kg/ha,5.5
same,AMBEL,[7]; Rate 0.016 kg/ha,4.5
same,AMBEL,[7]; Rate 0.032 kg/ha,6.5
same,AMBEL,[7]; Rate 0.063 kg/ha,7.5
same,AMBEL,[7]; Rate 0.125 kg/ha,8.5
same,AMBEL,[7]; Rate 0.250 kg/ha,9.0
same,AMBEL,[7]; Rate 0.500 kg/ha,9.0
same,IPOSS,[8]; Rate 0.016 kg/ha,5.5
same,IPOSS,[8]; Rate 0.032 kg/ha,7.0
same,IPOSS,[8]; Rate 0.063 kg/ha,9.0
same,IPOSS,[8]; Rate 0.125 kg/ha,9.0
same,IPOSS rating,[8]; Rate 0.125 kg/ha,9.0
same,IPOSS,[8]; Rate 0.250 kg/ha,9.0
same,IPOSS rating,[8]; Rate 0.250 kg/ha,9.0
same,IPOSS,[8]; Rate 0.500 kg/ha,9.0
same,IPOSS rating,[8]; Rate 0.500 kg/ha,9.0
same,ABUTH,[9]; Rate 0.016 kg/ha,7.0
same,ABUTH,[9]; Rate 0.032 kg/ha,8.5
same,ABUTH,[9]; Rate 0.063 kg/ha,9.0
same,ABUTH,[9]; Rate 0.125 kg/ha,9.0
same,ABUTH rating,[9]; Rate 0.125 kg/ha,9.0
same,ABUTH,[9]; Rate 0.250 kg/ha,9.0
same,ABUTH rating,[9]; Rate 0.250 kg/ha,9.0
same,ABUTH,[9]; Rate 0.500 kg/ha,9.0
same,ABUTH rating,[9]; Rate 0.500 kg/ha,9.0
same,SETVI,[10]; Rate 0.016 kg/ha,2.5
same,SETVI,[10]; Rate 0.032 kg/ha,4.5
same,SETVI,[10]; Rate 0.063 kg/ha,3.5
same,SETVI,[10]; Rate 0.125 kg/ha,4.5
same,SETVI,[10]; Rate 0.250 kg/ha,8.0
same,SETVI,[10]; Rate 0.500 kg/ha,9.0
same,"Herbicidal effect rating, ORYSAT",[11]; 0.063 kg/ha,2.5
same,"Herbicidal effect rating, ORYSAT",[11]; 0.125 kg/ha,3.5
same,"Herbicidal effect rating, ORYSAT",[11]; 0.250 kg/ha,5.0
same,"Herbicidal effect rating, ORYSAT",[11]; 0.500 kg/ha,5.3
same,ORYSAT,[11]; Rate 0.031 kg/ha,1.8
same,ORYSAT,[11]; Rate 0.063 kg/ha,2.5
same,ORYSAT,[11]; Rate 0.125 kg/ha,3.5
same,ORYSAT,[11]; Rate 0.250 kg/ha,5.0
"Cn1c(=O)[nH]c(=O)n(-c2cc(Oc3c(F)cc(C(F)(F)F)cc3Cl)ccc2[N+](=O)[O-])c1=O [D, reference compound]",GALAP,[1]; Rate 0.008 kg/ha,4.0
same,GALAP,[1]; Rate 0.016 kg/ha,8.0
same,GALAP,[1]; Rate 0.031 kg/ha,9.0
same,GALAP,[1]; Rate 0.063 kg/ha,8.5
same,GALAP,[1]; Rate 0.125 kg/ha,9.0
same,ECHCG,[2]; Rate 0.016 kg/ha,3.0
same,ECHCG,[2]; Rate 0.031 kg/ha,1.5
same,ECHCG,[2]; Rate 0.063 kg/ha,2.0
same,ECHCG,[2]; Rate 0.125 kg/ha,2.5
same,ZEAMX,[3]; Rate 0.008 kg/ha,1.0
same,ZEAMX,[3]; Rate 0.016 kg/ha,3.3
same,ZEAMX,[3]; Rate 0.031 kg/ha,3.3
same,ZEAMX,[3]; Rate 0.063 kg/ha,4.2
same,ZEAMX,[3]; Rate 0.125 kg/ha,5.5
same,CHEAL,[4]; Rate 0.008 kg/ha,7.0
same,CHEAL,[4]; Rate 0.016 kg/ha,7.3
same,CHEAL,[4]; Rate 0.031 kg/ha,6.3
same,CHEAL,[4]; Rate 0.063 kg/ha,7.0
same,CHEAL,[4]; Rate 0.125 kg/ha,9.0
same,CASOB,[5]; Rate 0.008 kg/ha,1.0
same,CASOB,[5]; Rate 0.016 kg/ha,4.3
same,CASOB,[5]; Rate 0.031 kg/ha,5.0
same,CASOB,[5]; Rate 0.063 kg/ha,6.0
same,CASOB,[5]; Rate 0.125 kg/ha,9.0
same,TRZAWO,[6]; Rate 0.016 kg/ha,3.5
same,TRZAWO,[6]; Rate 0.031 kg/ha,4.5
same,TRZAWO,[6]; Rate 0.063 kg/ha,5.3
same,TRZAWO,[6]; Rate 0.125 kg/ha,5.3
same,AMBEL,[7]; Rate 0.008 kg/ha,5.0
same,AMBEL,[7]; Rate 0.016 kg/ha,7.3
same,AMBEL,[7]; Rate 0.031 kg/ha,8.0
same,AMBEL,[7]; Rate 0.063 kg/ha,8.0
same,AMBEL,[7]; Rate 0.125 kg/ha,8.5
same,IPOSS,[8]; Rate 0.016 kg/ha,7.3
same,IPOSS,[8]; Rate 0.031 kg/ha,7.7
same,IPOSS,[8]; Rate 0.063 kg/ha,7.3
same,IPOSS,[8]; Rate 0.125 kg/ha,9.0
same,ABUTH,[9]; Rate 0.008 kg/ha,0.0
same,ABUTH,[9]; Rate 0.016 kg/ha,8.3
same,ABUTH,[9]; Rate 0.031 kg/ha,8.7
same,ABUTH,[9]; Rate 0.063 kg/ha,9.0
same,ABUTH,[9]; Rate 0.125 kg/ha,9.0
same,SETVI,[10]; Rate 0.008 kg/ha,0.0
same,SETVI,[10]; Rate 0.016 kg/ha,1.0
same,SETVI,[10]; Rate 0.031 kg/ha,1.3
same,SETVI,[10]; Rate 0.063 kg/ha,1.3
same,SETVI,[10]; Rate 0.125 kg/ha,1.5
same,ORYSAT,[11]; Rate 0.031 kg/ha,3.0
same,ORYSAT,[11]; Rate 0.063 kg/ha,3.0
same,ORYSAT,[11]; Rate 0.125 kg/ha,3.0
same,ORYSAT,[11]; Rate 0.250 kg/ha,6.0
